Experimental data: US10131656B2, “Organic thin film transistor, method of manufacturing organic thin film transistor, organic thin film transistor material, organic thin film transistor composition, organic semiconductor film, and compound” (FUJIFILM Corporation, priority 2015, dated 2018)

Assay: Evaluation of solubility to organic solvent (saturated solubility at room temperature)
Format: physicochemical
Settings: room temperature (25° C.); for Solubility to organic solvent Solubility (4): saturated solubility in N,N-dimethylformamide; for Solubility to organic solvent Solubility (2): saturated solubility in chloroform; for Solubility to organic solvent Solubility (3): saturated solubility in tetrahydrofuran; for Solubility to organic solvent Solubility (1): saturated solubility in toluene
Experimental: 2 mg of each example compound and comparative compound obtained above were weighed, and the saturated solubility (mass %) at room temperature (25° C.) was calculated from the volume and the specific gravity of toluene, chloroform, tetrahydrofuran, and N,N-dimethylformamide. Those having 2 mass % or greater were as set as “A”, those having 1 mass % or greater and less than 2 mass % were set as “B”, those having 0.1 mass % or greater and less than 1 mass % were set as “C”, and those having less than 0.1 mass % were set as “D”. Saturated solubility (hereinafter also referred to as solubility) of each compound in toluene, chloroform, tetrahydrofuran, and N,N-dimethylformamide was presented as Solubility (1) to (4), in the evaluation results of a first table.

Row | SMILES | Solubility to organic solvent Solubility (4) | Solubility to organic solvent Solubility (2) | Solubility to organic solvent Solubility (3) | Solubility to organic solvent Solubility (1)
1 | S=c1c2ccc3c4ccc5c(=S)n(C6CCCCC6)c(=S)c6cc7sc8cc(c(=S)n1C1CCCCC1)c2c3c8c7c4c56 [Example Compound 3] | B (those having 1 mass % or greater and less than 2 mass % were set as “B”) | B (those having 1 mass % or greater and less than 2 mass % were set as “B”) | B (those having 1 mass % or greater and less than 2 mass % were set as “B”) | B (those having 1 mass % or greater and less than 2 mass % were set as “B”)
2 | CCCCCCCCCCC(CCCCCCCC)CCn1c(=O)c2ccc3c4ccc5c(=O)n(CCC(CCCCCCCC)CCCCCCCCCC)c(=O)c6cc7sc8cc(c1=O)c2c3c8c7c4c56 (centres unmarked) [Comparative Compound 1] | B (those having 1 mass % or greater and less than 2 mass % were set as “B”) | A (Those having 2 mass % or greater were as set as “A”) | A (Those having 2 mass % or greater were as set as “A”) | B (those having 1 mass % or greater and less than 2 mass % were set as “B”)
